According to US8952024B2, “Herbicidal pyrimidone derivatives” (E I du Pont de Nemours and Company, priority 2009, dated 2015):

Tests used:
Assay in all cases: Test D pre-/postemergence plant response
Assay type in all cases: in vivo
[1] = system: large crabgrass (Digitaria sanguinalis)
In short: (§1)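 Greenhouse assay: sown seeds in loam/sand received preemergence spray; simultaneously, emerged seedlings (1- to 4-leaf, 2–18 cm) got postemergence spray of the same surfactant-containing formulation. Rating at 14–21 days by visual comparison with controls, 0 = no effect to 100 = complete control.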

[2] = system: purslane (common purslane, Portulaca oleracea)
In short: as §1

[3] = system: groundsel (common groundsel, Senecio vulgaris); details: Postemergence
In short: as §1

[4] = system: barnyardgrass (Echinochloa crus-galli)
In short: as §1

[5] = system: signalgrass (broadleaf signalgrass, Brachiaria platyphylla)
In short: as §1

[6] = system: guineagrass (Panicum maximum)
In short: as §1

[7] = system: goosegrass (Eleusine indica)
In short: as §1

[8] = system: johnsongrass (Sorghum halepense)
In short: as §1

[9] = system: kochia (Kochia scoparia)
In short: as §1

[10] = system: morningglory (pitted morningglory, Ipomoea lacunosa)
In short: as §1

[11] = system: Surinam grass (Brachiaria decumbens)
In short: as §1

[12] = system: black mustard (Brassica nigra)
In short: as §1

[13] = system: chickweed (common chickweed, Stellaria media); details: Postemergence
In short: as §1

[14] = system: green foxtail (Setaria viridis)
In short: as §1

[15] = system: Italian ryegrass (Lolium multiflorum)
In short: as §1

[16] = system: nutsedge (purple nutsedge, Cyperus rotundus)
In short: as §1

[17] = system: ragweed (common ragweed, Ambrosia elatior)
In short: as §1

[18] = system: spanishneedles (Bidens bipinnata)
In short: as §1

[19] = Postemergence, 31 g ai/ha, scale 0 to 100
[20] = Postemergence, 62 g ai/ha, scale 0 to 100 (0 no effect, 100 complete control)
[21] = Postemergence, 125 g ai/ha, scale 0 to 100 (0 no effect, 100 complete control)
[22] = Postemergence, 250 g ai/ha, scale 0 to 100 (0 no effect, 100 complete control)
[23] = Preemergence, 62 g ai/ha, scale 0 to 100
[24] = Preemergence, 125 g ai/ha, scale 0 to 100
[25] = Preemergence, 250 g ai/ha, scale 0 to 100
[26] = 62 g ai/ha, scale 0 to 100 (0 no effect, 100 complete control)
[27] = 125 g ai/ha, scale 0 to 100 (0 no effect, 100 complete control)
[28] = 250 g ai/ha, scale 0 to 100 (0 no effect, 100 complete control)

COCCn1c(-c2cc(F)cc(F)c2)ncc(C(=O)C2=C(O)C3CCC(C3)C2=O)c1=O (stereo not drawn) [Compound 243, 2-(3,5-difluorophenyl)-5-[(2-hydroxy-4-oxobicyclo[3.2.1]oct-2-en-3-yl)carbonyl]-3-(2-methoxyethyl)-4(3H)-pyrimidinone]
30: Plant response rating, Ryegrass, Italian [15, 21]
70: Plant response rating, Guineagrass [6, 19] | Plant response rating, Goosegrass [7, 20] | Plant response rating, Goosegrass [7, 21] | Plant response rating, Johnsongrass [8, 19] | Plant response rating, Johnsongrass [8, 20] | Plant response rating, Johnsongrass [8, 21] | Plant response rating, Kochia [9, 21] | Plant response rating, Chickweed [13, 28] | Plant response rating, Ragweed [17, 20] | Plant response rating, Spanishneedles [18, 21] | Plant response rating, Spanishneedles [18, 22]
90: Plant response rating, Barnyardgrass [4, 22] | Plant response rating, Foxtail, Green [14, 21]
98: Plant response rating, Groundsel ([3]; 31 g ai/ha, scale 0 to 100) | Plant response rating, Morningglory [10, 24] | Plant response rating, Black Mustard [12, 21] | Plant response rating, Black Mustard [12, 22] | Plant response rating, Foxtail, Green [14, 22] | Plant response rating, Ryegrass, Italian [15, 24]
60: Plant response rating, Kochia [9, 20] | Plant response rating, Chickweed [13, 27] | Plant response rating, Spanishneedles [18, 19]
95: Plant response rating, Purslane [2, 23] | Plant response rating, Signalgrass [5, 22] | Plant response rating, Signalgrass [5, 24]
75: Plant response rating, Crabgrass, Large [1, 19] | Plant response rating, Barnyardgrass [4, 19] | Plant response rating, Signalgrass [5, 20] | Plant response rating, Signalgrass [5, 21] | Plant response rating, Guineagrass [6, 20] | Plant response rating, Guineagrass [6, 21] | Plant response rating, Goosegrass [7, 22] | Plant response rating, Johnsongrass [8, 22] | Plant response rating, Kochia [9, 22] | Plant response rating, Morningglory [10, 19] | Plant response rating, Surinam Grass [11, 19] | Plant response rating, Surinam Grass [11, 20] | Plant response rating, Surinam Grass [11, 21] | Plant response rating, Black Mustard [12, 20] | Plant response rating, Ragweed [17, 21] | Plant response rating, Ragweed [17, 22]
50: Plant response rating, Purslane [2, 20] | Plant response rating, Purslane [2, 21] | Plant response rating, Purslane [2, 22] | Plant response rating, Signalgrass [5, 19] | Plant response rating, Kochia [9, 19] | Plant response rating, Black Mustard [12, 19] | Plant response rating, Chickweed [13, 26] | Plant response rating, Nutsedge, Purple [16, 22]
20: Plant response rating, Ryegrass, Italian [15, 20] | Plant response rating, Nutsedge, Purple [16, 19] | Plant response rating, Nutsedge, Purple [16, 23]
80: Plant response rating, Crabgrass, Large [1, 20] | Plant response rating, Barnyardgrass [4, 20] | Plant response rating, Barnyardgrass [4, 21] | Plant response rating, Kochia [9, 23] | Plant response rating, Foxtail, Green [14, 19]
65: Plant response rating, Goosegrass [7, 19] | Plant response rating, Ryegrass, Italian [15, 22] | Plant response rating, Ragweed [17, 19] | Plant response rating, Spanishneedles [18, 20]
25: Plant response rating, Nutsedge, Purple [16, 20] | Plant response rating, Nutsedge, Purple [16, 21]
0: Plant response rating, Ryegrass, Italian [15, 19]
100: Plant response rating, Crabgrass, Large [1, 23] | Plant response rating, Crabgrass, Large [1, 24] | Plant response rating, Crabgrass, Large [1, 25] | Plant response rating, Purslane [2, 24] | Plant response rating, Purslane [2, 25] | Plant response rating, Groundsel [3, 26] | Plant response rating, Groundsel [3, 27] | Plant response rating, Groundsel [3, 28] | Plant response rating, Barnyardgrass [4, 23] | Plant response rating, Barnyardgrass [4, 24] | Plant response rating, Barnyardgrass [4, 25] | Plant response rating, Signalgrass [5, 25] | Plant response rating, Guineagrass [6, 23] | Plant response rating, Guineagrass [6, 24] | Plant response rating, Guineagrass [6, 25] | Plant response rating, Goosegrass [7, 23] | Plant response rating, Goosegrass [7, 24] | Plant response rating, Goosegrass [7, 25] | Plant response rating, Johnsongrass [8, 23] | Plant response rating, Johnsongrass [8, 24] | Plant response rating, Johnsongrass [8, 25] | Plant response rating, Kochia [9, 24] | Plant response rating, Kochia [9, 25] | Plant response rating, Morningglory [10, 25] | Plant response rating, Surinam Grass [11, 24] | Plant response rating, Surinam Grass [11, 25] | Plant response rating, Black Mustard [12, 23] | Plant response rating, Black Mustard [12, 24] | Plant response rating, Black Mustard [12, 25] | Plant response rating, Foxtail, Green [14, 24] | Plant response rating, Foxtail, Green [14, 25] | Plant response rating, Ryegrass, Italian [15, 25] | Plant response rating, Nutsedge, Purple [16, 24] | Plant response rating, Nutsedge, Purple [16, 25] | Plant response rating, Ragweed [17, 24] | Plant response rating, Ragweed [17, 25] | Plant response rating, Spanishneedles [18, 24] | Plant response rating, Spanishneedles [18, 25]
85: Plant response rating, Crabgrass, Large [1, 21] | Plant response rating, Crabgrass, Large [1, 22] | Plant response rating, Guineagrass [6, 22] | Plant response rating, Morningglory [10, 20] | Plant response rating, Morningglory [10, 21] | Plant response rating, Morningglory [10, 22] | Plant response rating, Surinam Grass [11, 22] | Plant response rating, Foxtail, Green [14, 20]
35: Plant response rating, Purslane [2, 19] | Plant response rating, Chickweed ([13]; 31 g ai/ha, scale 0 to 100) | Plant response rating, Foxtail, Green [14, 23]

CCCCn1c(-c2cc(F)cc(F)c2)ncc(C(=O)C2=C(O)C3CCC(C3)C2=O)c1=O (stereo not drawn) [Compound 245]
95: Plant response rating, Groundsel ([3]; 31 g ai/ha, scale 0 to 100) | Plant response rating, Black Mustard [12, 20] | Plant response rating, Foxtail, Green [14, 21] | Plant response rating, Foxtail, Green [14, 22]
75: Plant response rating, Crabgrass, Large [1, 21] | Plant response rating, Crabgrass, Large [1, 22] | Plant response rating, Signalgrass [5, 22] | Plant response rating, Guineagrass [6, 19] | Plant response rating, Guineagrass [6, 20] | Plant response rating, Guineagrass [6, 21] | Plant response rating, Goosegrass [7, 22] | Plant response rating, Johnsongrass [8, 20] | Plant response rating, Johnsongrass [8, 21] | Plant response rating, Johnsongrass [8, 22] | Plant response rating, Kochia [9, 22] | Plant response rating, Morningglory [10, 20] | Plant response rating, Surinam Grass [11, 19] | Plant response rating, Surinam Grass [11, 20] | Plant response rating, Surinam Grass [11, 21] | Plant response rating, Surinam Grass [11, 22] | Plant response rating, Black Mustard [12, 19] | Plant response rating, Ragweed [17, 20] | Plant response rating, Ragweed [17, 21] | Plant response rating, Ragweed [17, 22] | Plant response rating, Spanishneedles [18, 22]
0: Plant response rating, Purslane [2, 19]
85: Plant response rating, Barnyardgrass [4, 20] | Plant response rating, Barnyardgrass [4, 21] | Plant response rating, Guineagrass [6, 22] | Plant response rating, Foxtail, Green [14, 19]
25: Plant response rating, Chickweed [13, 26]
70: Plant response rating, Crabgrass, Large [1, 19] | Plant response rating, Crabgrass, Large [1, 20] | Plant response rating, Goosegrass [7, 19] | Plant response rating, Goosegrass [7, 20] | Plant response rating, Goosegrass [7, 21] | Plant response rating, Johnsongrass [8, 19] | Plant response rating, Kochia [9, 21] | Plant response rating, Morningglory [10, 19] | Plant response rating, Ragweed [17, 19] | Plant response rating, Spanishneedles [18, 20] | Plant response rating, Spanishneedles [18, 21]
100: Plant response rating, Groundsel [3, 26] | Plant response rating, Groundsel [3, 27] | Plant response rating, Groundsel [3, 28]
30: Plant response rating, Purslane [2, 21] | Plant response rating, Purslane [2, 22]
65: Plant response rating, Kochia [9, 20] | Plant response rating, Spanishneedles [18, 19]
40: Plant response rating, Signalgrass [5, 20]
20: Plant response rating, Ryegrass, Italian [15, 21] | Plant response rating, Nutsedge, Purple [16, 22]
90: Plant response rating, Barnyardgrass [4, 22] | Plant response rating, Foxtail, Green [14, 20]
80: Plant response rating, Barnyardgrass [4, 19] | Plant response rating, Morningglory [10, 21] | Plant response rating, Morningglory [10, 22]
5: Plant response rating, Purslane [2, 20] | Plant response rating, Chickweed ([13]; 31 g ai/ha, scale 0 to 100) | Plant response rating, Ryegrass, Italian [15, 19] | Plant response rating, Ryegrass, Italian [15, 20] | Plant response rating, Nutsedge, Purple [16, 19] | Plant response rating, Nutsedge, Purple [16, 20] | Plant response rating, Nutsedge, Purple [16, 21]
10: Plant response rating, Signalgrass [5, 19]
50: Plant response rating, Signalgrass [5, 21] | Plant response rating, Kochia [9, 19] | Plant response rating, Chickweed [13, 27] | Plant response rating, Chickweed [13, 28] | Plant response rating, Ryegrass, Italian [15, 22]
98: Plant response rating, Black Mustard [12, 21] | Plant response rating, Black Mustard [12, 22]
